Measurements from publication PMC6212638, “In silico identification and biochemical characterization of the human dicarboxylate clamp TPR protein interaction network” (FEBS Open Bio, 2018).
Values belong to the molecule of their own block, whether it stands above or below them. Peptide text beside a SMILES is read from it.

Tests used:
[1] = test system: HEK293 cells; conditions: N-terminally fluorescein-labeled peptides, 20 μM, fluorescence imaging
From the text: (§1) P < 0.05 was considered to be statistically significant. Data are presented as mean ± SEM.

[2] = test system: Tom20–Tom70 interaction; assay: Mammalian two-hybrid assay (luciferase) of Tom20–Tom70 interaction in HEK293 cells; assay type: cell-based, human; conditions: peptide 20 μM added 4 h after transfection, 48 h, n = 3
From the text: (§2) Tom70 sequence was PCR amplified and subcloned into pACT vector of CheckMate™ mammalian two‐hybrid system (Promega, Madison, WI, USA) using SalI/NotI restriction sites, and Hsp90 and Tom20 DNA sequences were PCR amplified and subcloned into pBIND vector using SalI/NotI restriction sites. Tom70‐pACT/Hsp90‐pBIND and Tom70‐pACT/Tom20‐pBIND were co‐transfected with pLuc plasmid in a 1 : 1 : 1 molar ratio into HEK293 cells using Lipofectamine 3000 transfection reagent (Invitrogen, Carlsbad, CA, USA) according to the manufacturer's protocol. Triplicate samples in 96‐well cell culture plates Corning (Tewskbury, MA, USA) were used in each experiment. Hsp90, R9–Hsp90, Tom20 and R9–Tom20 peptides at concentration 20 μM were added 4 h after transfection. HEK293 cells were cultivated for 48 h, washed twice with PBS and lysed with PBS containing 1% Triton X‐100. Luciferase expression was detected using a luciferase assay kit from BioThema (Huddinge, Sweden) on a 96‐well plate reader from Perkin Elmer (Upplands Väsby, Stockholm, Sweden).
(§3) In subsequent experiments, non‐fluorescent peptides were used. […] Cell impermeable Hsp90 peptide served as a treatment control.

[3] = test system: Hsp90–Tom70 interaction; assay: Mammalian two-hybrid assay (luciferase) of Hsp90–Tom70 interaction in HEK293 cells; assay type: cell-based, human; conditions: peptide 20 μM added 4 h after transfection, 48 h, n = 3
From the text: as §2, §3

[4] = test system: Hsp90–Tom70 interaction; assay: Proximity ligation assay (PLA) of Hsp90–Tom70 interaction in HEK293 cells; assay type: cell-based, human; conditions: non-fluorescent peptide, n = 3
From the text: as §1, §3

[5] = biological target: T1, NADSYN1 (human, UniProt Q6IA69 1-706); assay: pull-down; GST–AIP and GST–FKBP51 as bait, purified full-length and truncated proteins as prey; bound proteins probed by western blot with their antibodies; conditions: both partners purified
T1 construct: prey of the pull-down; also called Nicotinamide adenine dinucleotide synthase 1; source: E. coli BL21, purified as GST fusion (GSTrap), GST removed with PreScission protease
T1 sequence (looked up): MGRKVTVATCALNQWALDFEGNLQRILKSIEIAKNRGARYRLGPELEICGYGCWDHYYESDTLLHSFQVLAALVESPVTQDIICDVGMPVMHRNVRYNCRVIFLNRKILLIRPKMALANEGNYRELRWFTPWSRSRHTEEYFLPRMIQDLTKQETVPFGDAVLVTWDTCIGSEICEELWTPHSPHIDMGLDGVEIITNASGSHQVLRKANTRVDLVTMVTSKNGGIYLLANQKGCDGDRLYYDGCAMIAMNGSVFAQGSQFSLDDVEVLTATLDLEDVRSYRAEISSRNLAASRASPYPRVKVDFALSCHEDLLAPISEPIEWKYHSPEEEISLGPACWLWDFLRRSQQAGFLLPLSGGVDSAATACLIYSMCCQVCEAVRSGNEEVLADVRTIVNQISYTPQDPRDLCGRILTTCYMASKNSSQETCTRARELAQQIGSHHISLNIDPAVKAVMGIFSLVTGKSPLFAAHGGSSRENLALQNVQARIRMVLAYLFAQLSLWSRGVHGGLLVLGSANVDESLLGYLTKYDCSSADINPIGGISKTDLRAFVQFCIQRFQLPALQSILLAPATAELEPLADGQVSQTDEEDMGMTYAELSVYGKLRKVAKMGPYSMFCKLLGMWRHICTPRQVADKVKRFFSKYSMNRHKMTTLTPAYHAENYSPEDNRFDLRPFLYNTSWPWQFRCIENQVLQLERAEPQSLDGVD

[6] = biological target: T2, DNAAF2 (human, UniProt Q9NVR5 1-837); assay: as above; conditions: both partners purified
T2 construct: prey of the pull-down; also called dynein axonemal assembly factor 2; source: E. coli BL21, purified as GST fusion (GSTrap), GST removed with PreScission protease
T2 sequence (looked up): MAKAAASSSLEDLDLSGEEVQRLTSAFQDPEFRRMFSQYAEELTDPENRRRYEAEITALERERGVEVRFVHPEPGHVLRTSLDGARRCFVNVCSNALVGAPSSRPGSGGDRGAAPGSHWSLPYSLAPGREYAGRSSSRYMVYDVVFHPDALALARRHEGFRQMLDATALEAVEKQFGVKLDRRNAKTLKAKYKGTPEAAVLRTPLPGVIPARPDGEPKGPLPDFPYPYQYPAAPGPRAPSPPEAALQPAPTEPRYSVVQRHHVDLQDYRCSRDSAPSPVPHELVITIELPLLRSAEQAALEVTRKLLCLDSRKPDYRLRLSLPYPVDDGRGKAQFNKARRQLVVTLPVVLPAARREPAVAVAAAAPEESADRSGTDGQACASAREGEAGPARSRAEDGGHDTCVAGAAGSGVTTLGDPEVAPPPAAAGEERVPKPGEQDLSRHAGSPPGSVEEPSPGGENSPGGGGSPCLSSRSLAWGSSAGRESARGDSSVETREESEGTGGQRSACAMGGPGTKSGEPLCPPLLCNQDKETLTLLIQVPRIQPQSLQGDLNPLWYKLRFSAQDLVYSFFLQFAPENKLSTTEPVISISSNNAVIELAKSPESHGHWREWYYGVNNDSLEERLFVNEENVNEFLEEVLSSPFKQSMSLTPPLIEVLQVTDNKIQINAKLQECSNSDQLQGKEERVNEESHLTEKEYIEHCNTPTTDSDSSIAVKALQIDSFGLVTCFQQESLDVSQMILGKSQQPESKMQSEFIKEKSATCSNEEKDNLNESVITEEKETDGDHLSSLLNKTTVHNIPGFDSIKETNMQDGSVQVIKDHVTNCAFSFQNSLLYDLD

Molecule: CC(C)C[C@H](NC(=O)[C@H](CO)NC(=O)[C@H](CCC(N)=O)NC(=O)[C@H](C)NC(=O)[C@H](CCCNC(=N)N)NC(=O)[C@H](CCCNC(=N)N)NC(=O)[C@H](CCCNC(=N)N)NC(=O)[C@H](CCCNC(=N)N)NC(=O)[C@H](CCCNC(=N)N)NC(=O)[C@H](CCCNC(=N)N)NC(=O)[C@H](CCCNC(=N)N)NC(=O)[C@H](CCCNC(=N)N)NC(=O)[C@@H](N)CCCNC(=N)N)C(=O)N[C@@H](C)C(=O)N[C@@H](CCC(=O)O)C(=O)N[C@@H](CC(=O)O)C(=O)N[C@@H](CC(=O)O)C(=O)N[C@H](C(=O)N[C@@H](CCC(=O)O)C(=O)O)C(C)C [R9–Tom20] (H-RRRRRRRRRAQSLAEDDVE-OH)
fluorescein staining of HEK293 cells (peptide translocation into the cells) [1]: resulted in HEK293 cells staining
inhibition of Tom20–Tom70 interaction (mammalian two-hybrid, luciferase) [2]: sensitive
inhibition of Hsp90–Tom70 interaction (mammalian two-hybrid, luciferase) [3]: inhibited only by addition of R9–Hsp90 peptide
decrease of Hsp90–Tom70 interaction signal (PLA) [4]: failed to inhibit

binding result [5]: binds
binding result [6]: binds
B1: GST–AIP (natural protein, human, UniProt O00170 1-330, looked up)
chain: MADIIARLREDGIQKRVIQEGRGELPDFQDGTKATFHYRTLHSDDEGTVLDDSRARGKPMELIIGKKFKLPVWETIVCTMREGEIAQFLCDIKHVVLYPLVAKSLRNIAVGKDPLEGQRHCCGVAQMREHSSLGHADLDALQQNPQPLIFHMEMLKVESPGTYQQDPWAMTDEEKAKAVPLIHQEGNRLYREGHVKEAAAKYYDAIACLKNLQMKEQPGSPEWIQLDQQITPLLLNYCQCKLVVEEYYEVLDHCSSILNKYDDNVKAYFKRGKAHAAVWNAQEAQADFAKVLELDPALAPVVSRELRALEARIRQKDEEDKARFRGIFSH
notes: bait of the GST pull-down; source: E. coli BL21, purified (GSTrap 4B, PD-10)

binding result [5]: binds
binding result [6]: binds
B2: GST–FKBP51 (natural protein, human, UniProt Q13451 1-457, looked up)
chain: MTTDEGAKNNEESPTATVAEQGEDITSKKDRGVLKIVKRVGNGEETPMIGDKVYVHYKGKLSNGKKFDSSHDRNEPFVFSLGKGQVIKAWDIGVATMKKGEICHLLCKPEYAYGSAGSLPKIPSNATLFFEIELLDFKGEDLFEDGGIIRRTKRKGEGYSNPNEGATVEIHLEGRCGGRMFDCRDVAFTVGEGEDHDIPIGIDKALEKMQREEQCILYLGPRYGFGEAGKPKFGIEPNAELIYEVTLKSFEKAKESWEMDTKEKLEQAAIVKEKGTVYFKGGKYMQAVIQYGKIVSWLEMEYGLSEKESKASESFLLAAFLNLAMCYLKLREYTKAVECCDKALGLDSANEKGLYRRGEAQLLMNEFESAKGDFEKVLEVNPQNKAARLQISMCQKKAKEHNERDRRIYANMFKKFAEQDAKEEANKAMGKKTSEGVTNEKGTDSQAMEEEKPEGHV
notes: as for B1
